Experimental data as given in PubChem BioAssay (NCI).
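In this assay, cells in 96-well plates receive the compound at five concentrations for 48 hours. Endpoints are linearly interpolated between the surrounding concentrations. Here, GI50 denotes the concentration required for 50% inhibition of growth. TGI marks complete inhibition of growth.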

Tests used:
Assay in all cases: NCI tumour cell line growth inhibition, 48 h
MALME-3M melanoma = test system: MALME-3M melanoma
SF-268 CNS = test system: SF-268 CNS
LOX IMVI melanoma = test system: LOX IMVI melanoma
HCT-116 colon = test system: HCT-116 colon
NCI-H460 lung = test system: NCI-H460 lung
UO-31 renal = test system: UO-31 renal
HT29 colon = test system: HT29 colon
786-0 renal = test system: 786-0 renal
HCC-2998 colon = test system: HCC-2998 colon
UACC-62 melanoma = test system: UACC-62 melanoma

| Compound | TGI (MALME-3M melanoma) [µM] | TGI (SF-268 CNS) [µM] | TGI (LOX IMVI melanoma) [µM] | TGI (HCT-116 colon) [µM] | TGI (NCI-H460 lung) [µM] | TGI (UO-31 renal) [µM] | TGI (HT29 colon) [µM] | TGI (786-0 renal) [µM] | TGI (HCC-2998 colon) [µM] | TGI (UACC-62 melanoma) [µM] | GI50 (MALME-3M melanoma) [µM] | GI50 (SF-268 CNS) [µM] | GI50 (LOX IMVI melanoma) [µM] | GI50 (HCT-116 colon) [µM] | GI50 (NCI-H460 lung) [µM] | GI50 (UO-31 renal) [µM] | GI50 (HT29 colon) [µM] | GI50 (786-0 renal) [µM] | GI50 (HCC-2998 colon) [µM] | GI50 (UACC-62 melanoma) [µM] |
| --- | --- | --- | --- | --- | --- | --- | --- | --- | --- | --- | --- | --- | --- | --- | --- | --- | --- | --- | --- | --- |
| Fc1ccc(NC(=S)SCc2ccc3c(c2)OCO3)cc1F | 76.3 | 52.8 | 28.6 | > 100 | > 100 | 37.9 | 45.3 | 72.4 | 71.5 | 27.3 |  |  |  |  |  |  |  |  |  |  |
| OC1CSSC1Cn1cnc2c(Nc3ccc(OCc4cccc(F)c4)c(Cl)c3)ncnc21 (stereo unspecified) | 10.6 | 2.9 | 0.499 | 3.84 | 0.667 | 6.55 | 3.91 | 11.9 | 3.49 | 2.71 | 2.52 | 0.56 | 0.121 | 0.687 | 0.171 | 1.45 | 0.744 | 5.67 | 0.952 | 0.971 |
| CCCC1C(=O)CCc2c(OC)ccc(OC)c21 (stereo unspecified) | > 100 | > 100 | > 100 | > 100 | > 100 | > 100 | > 100 | > 100 | > 100 | > 100 |  |  |  |  |  |  |  |  |  |  |
| Cc1ccc(NC(=O)Nc2ccc(-c3cccnc3)cc2N2CCC(CO)CC2)cc1 | > 100 | > 100 | > 100 | 11.4 | > 100 |  | 9.93 | 7.25 | > 100 | 6.18 | 3.07 | 3.05 | 3.6 | 1.78 | 3.19 |  | 1.47 | 2.58 | 3.21 | 2.3 |
| CCOC1Oc2ccccc2C(=O)/C1=C/Nc1ccc(C(C)=O)cc1 (stereo unspecified) |  | > 100 | 58.5 | > 100 | > 100 | > 100 | > 100 | 25.4 | 35.4 | 42 |  | 33.7 | 18.9 | 22.8 | 32.8 | 27.9 | 36.3 | 6.56 | 15.9 | 17.5 |
| OCC1=CC(NC2CC(CO)C(O)C(O)C2O)C(O)C(O)C1O (stereo unspecified) | > 100 |  | > 100 | > 100 | > 100 | > 100 | > 100 | > 100 |  | > 100 |  |  |  |  |  |  |  |  |  |  |
| C1=C2/CC[C@H](Sc3ccccc3)C2C2(CCCCC/1)OCCO2 (stereo partly specified) | 55.2 | > 100 | 28.9 | 37.1 | 73.9 |  | 28 | > 100 | 67.9 | 64.5 |  |  |  |  |  |  |  |  |  |  |
| C[N+](C)(C)CC(=O)N/N=C(/CC(=O)CC(C1=C(O)c2ccccc2OC1)c1ccccc1)C(=O)Nc1cccc(Cl)c1 (stereo unspecified) |  | > 100 | > 100 | > 100 |  | > 100 | > 100 | > 100 | > 100 | > 100 |  |  |  |  |  |  |  |  |  |  |
| COC1/C=C/OC2(C)Oc3c(C)c(O)c4c(O)c(c(/C=N/Nc5ccc([N+](=O)[O-])cc5[N+](=O)[O-])c(O)c4c3C2=O)NC(=O)C(C)=C/C=C/C(C)C(O)C(C)C(O)C(C)C(OC(C)=O)C1C (stereo unspecified) | 6.13 | 11.4 | 2.32 | 1.9 | 14.7 | 23.6 |  | 7.02 | 11.6 | 5.08 | 1.21 | 1.59 | 1.03 | 0.955 | 5.22 | 8.71 |  | 1.67 | 5.05 | 1.37 |
| CCC(=O)[C@H](C)[C@@H](OC(=O)[C@H](C)CC)[C@H](C)[C@H]1OC(CC)=C(C)C(=O)[C@@H]1C | 42.4 | > 100 | 30.5 | 72.4 | 36.2 | 66.6 | 32.8 | 84.2 |  | 27.7 | 19.9 | 25.3 | 16.9 | 9.98 | 15.7 | 24 | 13.4 | 25.5 |  | 13.7 |
| CN1CCCCC1CCN1c2ccccc2Sc2ccc(Cl)cc21 (stereo unspecified) | 4.25 | 8.85 |  | 6.72 | 8.44 | 12.7 | 11.1 | 14.5 | 5.85 | 5.61 | 2.1 | 2.99 |  | 2.57 | 2.77 | 2.92 | 3.17 | 3.85 | 2.5 | 2.16 |
| Nc1ccccc1S(=O)(=O)N(CC(=O)O)c1ccccc1 | > 100 | > 100 | > 100 |  | > 100 | > 100 | > 100 | > 100 |  | > 100 |  |  |  |  |  |  |  |  |  |  |
| CCC[CH2][Sn]([CH2]CCC)([S]c1cccc2cccnc12)[S]c1cccc2cccnc12 |  |  | 0.359 | 0.303 | 0.356 | 0.345 | 0.335 | 0.56 | 0.3 | 0.959 |  |  | 0.175 | 0.155 | 0.151 | 0.189 | 0.138 | 0.227 | 0.144 | 0.279 |
| O=C(O)CCNCCCNCCC(=O)O | > 100 | > 100 | > 100 | > 100 | > 100 |  | > 100 | > 100 | > 100 | > 100 |  |  |  |  |  |  |  |  |  |  |
| CO/C(=N\N=C\c1ccc(C(F)(F)F)cc1)c1ccncc1 | > 10 | > 10 | > 10 | > 10 | > 10 | > 10 | > 10 | > 10 | > 10 |  |  |  |  |  |  |  |  |  |  |  |
| COC(=O)CC[N+]1=CCC(c2ccccc2)(c2ccccc2)O1 |  | > 100 |  | > 100 | > 100 | > 100 | > 100 | > 100 | > 100 | > 100 |  |  |  |  |  |  |  |  |  |  |
| COc1ccccc1N1C(=O)C2c3[nH]c4ccccc4c3C3CCC(C(C)(C)C)CC3C2C1=O (stereo unspecified) | > 100 | > 100 |  | > 100 |  | > 100 | > 100 | > 100 | > 100 | > 100 |  |  |  |  |  |  |  |  |  |  |
| Cc1cc(N(CCC#N)CCC#N)ccc1N=Nc1ccc(S(N)(=O)=O)cc1 | > 100 | > 100 | > 100 |  |  | > 100 | > 100 | > 100 | > 100 | > 100 |  |  |  |  |  |  |  |  |  |  |
